Reference: patent US20260248763A1 (BIO GENUINE (SHANGHAI) BIOTECH CO., LTD, priority 2023, published 2026)

Experiments:
[1] = Blood-brain distribution determination in SD rats; type: in vivo; details: female SD rats, oral, 5 mg/kg; for Kp / AUC(0-t): rat; for Kp: brain/plasma, read-out: Brain/plasma exposure ratio; for AUC(0-t): plasma, read-out: Plasma area under the curve AUC0-t
Method: Test Example 4: Blood-Brain Distribution Determination in SD Rats
In this study, female SD rats were selected as test animals. The LC/MS/MS method was used to quantitatively determine the drug concentrations of the test compounds in plasma and brain tissues at three different time points (0.5 h, 2 h, 4 h or 6 h) after oral administration (5 mg/kg or 10 mg/kg) in rats, so as to evaluate the pharmacokinetic profile of the test drugs in rats.
The example compounds of the present disclosure, made in house.
SD rats (female, 180-220 g, 6-8 weeks old, purchased from Beijing Vital River Laboratory Animal Technology Co., Ltd., with animal production license number SCXK (Beijing) 2021-0006).
Vehicle for oral administration: 5% DMSO+95% PEG400 or a mixture of (50% Labrasol+50% Water).
The test compound, formulated as a clear solution or suspension, was administered to overnight-fasted SD rats via oral gavage. For oral gavage, blood samples (0.25 mL) were collected via jugular vein puncture at pre-dose (0 h) and 0.5 h, 2 h, 4 h or 6 h post-dose. The samples were placed into sodium heparin anticoagulant tubes. After collection, the blood samples were placed on wet ice and centrifuged within 1 hour to separate the plasma. The separated plasma was stored frozen in a −80° C. freezer. After blood collection, the animals were euthanized by cervical dislocation. The whole brain tissue was dissected out. The collected brain tissue was first rinsed with physiological saline, blotted dry with absorbent paper, and then stored frozen in a −80° C. freezer. Prior to analysis, the brain tissue samples and plasma samples were taken out from the −80° C. freezer. After the brain tissue samples were completely thawed, a given amount of brain tissue was weighed, and 50% methanol/water was added for homogenization. Drug concentrations in plasma and brain tissues were determined using the LC-MS/MS method, and the relevant pharmacokinetic parameters were calculated using the non-compartmental model with linear-log trapezoidal method in Phoenix WinNonlin 8.2.0 pharmacokinetic software.

V1aR = target: T1, V1aR (Homo sapiens, UniProt P37288); experiment: Ca2+ mobilization in cells stably expressing V1aR (FLIPR, antagonist mode); type: cell-based; details: V1a-CHO stably transfected cell line
T1 construct: expressed in transfected cells; host or cells: V1a-CHO stably transfected cell line
T1 sequence (P37288 whole entry, species assumed): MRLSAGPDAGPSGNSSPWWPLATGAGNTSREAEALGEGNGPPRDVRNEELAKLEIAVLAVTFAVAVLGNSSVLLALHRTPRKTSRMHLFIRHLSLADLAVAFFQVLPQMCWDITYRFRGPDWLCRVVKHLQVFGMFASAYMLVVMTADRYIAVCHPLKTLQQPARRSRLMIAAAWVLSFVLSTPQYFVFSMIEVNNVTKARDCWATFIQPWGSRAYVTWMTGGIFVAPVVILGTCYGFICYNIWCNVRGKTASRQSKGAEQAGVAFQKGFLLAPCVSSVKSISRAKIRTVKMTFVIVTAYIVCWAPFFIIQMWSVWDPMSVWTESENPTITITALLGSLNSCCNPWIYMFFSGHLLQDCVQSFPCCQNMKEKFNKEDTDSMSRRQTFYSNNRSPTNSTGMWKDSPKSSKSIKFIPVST

| SMILES | Brain tissue area under the curve AUC0-t [1] [ng·h/g] | Kp [1] | AUC(0-t) [1] [ng·h/mL] | IC50 (V1aR) [nM] |
| --- | --- | --- | --- | --- |
| CON=C1CC(CO)N(C(=O)c2ccc(-c3cccc(C#N)c3C)c3c2OCO3)C1 (single isomer, unassigned) [Example C0099] | 150 | 0.1 | 1460 | 5280 |
| CO/N=C1/C[C@@H](CO)N(C(=O)c2ccc(-c3cccc(C#N)c3Cl)cc2)C1 [Example A0203, 2-Chloro-3-(4-[(2S, 4Z)-2-(hydroxymethyl)-4-(methoxyimino)pyrrolidine-1-carbonyl]phenyl)benzonitrile] | 2579 | 0.39 | 6670 | 1360 |
| CO/N=C1/C[C@@H](CO)N(C(=O)c2ccc(-c3cccc(C#N)c3C)cc2)C1 [Example C0058, (S, Z)-4′-(2-(Hydroxymethyl)-4-(methoxyimino)pyrrolidine-1-carbonyl)-2-methyl-[1,1′-biphenyl]-3-carbonitrile] | 1109 | 0.32 | 3520 | 2250 |

Second part, the molecule after the results:

| Brain tissue area under the curve AUC0-t [1] [ng·h/g] | Kp [1] | AUC(0-t) [1] [ng·h/mL] | IC50 (V1aR) [nM] | SMILES |
| --- | --- | --- | --- | --- |
| 818 | 0.52 | 1570 | 602 | CO/N=C1/C[C@@H]([C@@H](C)O)N(C(=O)c2ccc(-c3cccc(C#N)c3C)cc2)C1 (single isomer, unassigned) [Example C0112] |
| 169 | 0.08 | 2050 | 9810 | CO/N=C1/C[C@@H](CO)N(C(=O)c2ccc(-c3cc(F)cc(C#N)c3C)c3c2OCCO3)C1 [Example C0152, (S,Z)-5-Fluoro-3-(8-(2-(hydroxymethyl)-4-(methoxyimino)pyrrolidine-1-carbonyl)-2,3-dihydrobenzo[b][1,4]dioxin-5-yl)-2-methylbenzonitrile] |
